Measured values from patent US7795315B2, “N-(2-amino-phenyl)-amide derivatives” (Hoffman-La Roche Inc., priority 2008, dated 2010).

Tests used:
Assay type in all cases: cell-based
[1] = test system: p21 promoter-luciferase construct in HeLa cells; assay: p21 reporter gene induction; details: 3 micromolar, 15 hours, relative to SNDX-275
Experimental: (§1) The novel compounds of the present invention were tested for their ability to induce p21 gene expression using a reporter gene assay involving HeLa cells transfected with a p21 promoter-luciferase construct. The p21 promoter contained the Sp1/Sp3 binding site for HDAC but not the upstream p53 binding site. Briefly, the day before transfection, HeLa cells were seeded at 11,000 cells/well in a 96-well culture plate and incubated at 37 degrees Celsius in 5% CO2 overnight. For transfection, the medium was removed and replaced with 100 microliters/well transfection media previously prepared as follows: 5 microliters serum-free DMEM, 0.15 microliters Fugene 6 reagent, 40 ng p21-luc, 10 ng GFP were mixed gently and incubated at room temperature for 30 minutes; then 98 microliters DMEM (with 10% FBS, 1% penicillin and streptomycin) was added to the DNA:Fugene 6 reagent complex and mixed gently. After incubating the cells for 24 hours at 37 degrees Celsius in 5% CO2, fresh media and test compounds were added to the wells and the cells further incubated for 15 hours at 37 degrees Celsius in 5% CO2. Cells were lysed by adding 80 microliters/well of a cell culture lysis reagent (Promega). 50 microliters of each lysate was taken for GFP detection using an excitation wavelength of 486 nm and detection at 527 nm. 100 microliters Luciferase assay reagent (Promega) was then added to every 20 microliters cell lysate for luminometer detection. […] Induction activity for specific representative compounds can be found in Table 4.

[2] = test system: klf2 promoter-luciferase construct in A204 cells; assay: klf2 reporter gene induction (p21 versus klf2 selectivity); details: SNDX-275 p21/klf2 ratio defined as 1.0; for p21/klf2 (RP3): relative selectivity compared with SNDX-275: 3 micromolar; for p21/klf2 (RP10): relative selectivity compared with SNDX-275: 10 micromolar
Experimental: as §1
The novel compounds of the present invention were tested for their ability to induce klf2 gene expression using a reporter gene assay involving A204 cells transfected with a klf2 promoter-luciferase construct. The klf2 promoter contained the MEF2 binding site for HDAC3/class IIa HDAC complex. Briefly, the day before transfection, A204 cells were seeded at 11,000 cells/well in a 96-well culture plate and incubated at 37 degrees Celsius in 5% CO2 overnight. For transfection, the medium was removed and replaced with 100 microliters/well transfection media previously prepared as follows: 5 microliters serum-free DMEM, 0.15 microliters Fugene 6 reagent, 40 ng klf2-luc, 10 ng GFP were mixed gently and incubated at room temperature for 30 minutes; then 98 microliters DMEM (with 10% FBS, 1% penicillin and streptomycin) was added to the DNA:Fugene 6 reagent complex and mixed gently. After incubating the cells for 24 hours at 37 degrees Celsius in 5% CO2, fresh media and test compounds were added to the wells and the cells further incubated for 15 hours at 37 degrees Celsius in 5% CO2. Finally, 10 ng/ml TNF-α was added and the cells further incubated for 4 hours. Cells were lysed by adding 80 microliters/well of a cell culture lysis reagent (Promega). 50 microliters of each lysate was taken for GFP detection using an excitation wavelength of 486 nm and detection at 527 nm. 100 microliters Luciferase assay reagent (Promega) was then added to every 20 microliters cell lysate for luminometer detection.

[3] = test system: HCT-116 colon cancer cells; assay: Antiproliferative activity, growth inhibition (MTS/WST assay); details: Homo sapiens, 72 hour growth inhibition, read-out: GI50 HCT116
Experimental: The novel compounds of the present invention were tested for their ability to inhibit growth of various cancer cell lines (HeLa, MCF7, U2OS, HepG2, HL60, HCT-116) using in vitro growth inhibition assays described below.
Cells were seeded in 96-well culture plates (200 microliters/well at different seeding concentrations depending on cell type) and incubated overnight at 37 degrees Celsius in 5% CO2. After adding compound dilutions to the cells (DMSO concentration kept below 0.5%), the cells were incubated at 37 degrees Celsius in 5% CO2 for 72 hours. The effects on proliferation were determined by addition of MTS reagent (Promega) according to the manufacturer's instruction, followed by incubation for 2 hours at 37 degrees Celsius in 5% CO2, and finally recording the absorbance at 490 nm using an ELISA plate reader.
Similar to MTS assay except that the developer is the CCK-8 reagent (Dojindo) and the plate reader is set to 450 nm absorbance.
GI50 values against HCT-116 colon cancer cells for specific representative compounds can be found in Table 4.

SMILES	GI50 [3]	p21 (RP3): relative induction potency compared with SNDX-275 [1]	p21/klf2 (RP3): relative selectivity compared with SNDX-275 [2]	p21/klf2 (RP10): relative selectivity compared with SNDX-275 [2]
CN(C)C(C(=O)Nc1ccc(C(F)(F)F)cc1)c1ccc(/C=C/C(=O)Nc2ccccc2N)cc1 (stereo not shown) [Example 9-6, (E)-N-(2-Amino-phenyl)-3-{4-[dimethylamino-(4-trifluoromethyl-phenylcarbamoyl)-methyl]-phenyl}-acrylamide]	2.7 µM	47%	0.9	1.7
Nc1ccccc1NC(=O)/C=C/c1ccc(C(NCCC2CCOCC2)C(=O)Nc2ccc(C(F)(F)F)cc2)cc1 (stereo not shown) [Example 9-18, (E)-N-(2-Amino-phenyl)-3-{4-[[2-(tetrahydro-pyran-4-yl)-ethylamino]-(4-trifluoromethyl-phenylcarbamoyl)-methyl]-phenyl}-acrylamide]	1 µM	70%	1.0	1.7
Nc1ccccc1NC(=O)/C=C/c1ccc(C(OCCN2CCOCC2)C(=O)Nc2ccc(C(F)(F)F)cc2)cc1 (stereo not shown) [Example 19, (E)-N-(2-Amino-phenyl)-3-{4-[(2-morpholin-4-yl-ethoxy)-(4-trifluoromethyl-phenylcarbamoyl)-methyl]-phenyl}-acrylamide]	2.2 µM	98%	1.6	3.6
Nc1ccccc1NC(=O)/C=C/c1ccc(C(NCCN2CCOCC2)C(=O)Nc2ccc(C(F)(F)F)cc2)cc1 (stereo not shown) [Example 30, (E)-N-(2-Amino-phenyl)-3-{4-[(2-morpholin-4-yl-ethylamino)-(4-trifluoromethyl-phenylcarbamoyl)-methyl]-phenyl}-acrylamide]	0.8 µM	100%	1.3	3.9
Nc1ccccc1NC(=O)/C=C/c1ccc(C(NCCN2CCOCC2)C(=O)Nc2ccc(Cl)cc2)cc1 (stereo not shown) [Example 30-33, (E)-N-(2-Amino-phenyl)-3-{4-[(4-chloro-phenylcarbamoyl)-(2-morpholin-4-yl-ethylamino)-methyl]-phenyl}-acrylamide]	0.9 µM	193%	2.1	1.2
Cc1ccc(NC(=O)C(NCCN2CCOCC2)c2ccc(/C=C/C(=O)Nc3ccccc3N)cc2)cc1 (stereo not shown) [Example 30-54, (E)-N-(2-Amino-phenyl)-3-{4-[(2-morpholin-4-yl-ethylamino)-p-tolylcarbamoyl-methyl]-phenyl}-acrylamide]	1 µM	183%	2.0	1.3

The next lines start with results.

GI50 [3]	SMILES	p21 (RP3): relative induction potency compared with SNDX-275 [1]	p21/klf2 (RP3): relative selectivity compared with SNDX-275 [2]	p21/klf2 (RP10): relative selectivity compared with SNDX-275 [2]
0.3 µM	CN(C)CCNC(C(=O)Nc1ccc(Br)cc1)c1ccc(/C=C/C(=O)Nc2ccccc2N)cc1 (stereo not shown) [Example 9-3, (E)-N-(2-Amino-phenyl)-3-{4-[(4-bromo-phenylcarbamoyl)-(2-dimethylamino-ethylamino)-methyl]-phenyl}-acrylamide]	152%	1.6	1.7
2.5 µM	Nc1ccccc1NC(=O)/C=C/c1ccc(C(C(=O)Nc2ccc(C(F)(F)F)cc2)N2CCNCC2)cc1 (stereo not shown) [Example 9-7, (E)-N-(2-Amino-phenyl)-3-{4-[piperazin-1-yl-(4-trifluoromethyl-phenylcarbamoyl)-methyl]-phenyl}-acrylamide]	54%	0.5	2.1
1.1 µM	Nc1ccccc1NC(=O)/C=C/c1ccc(C(C(=O)Nc2ccc(C(F)(F)F)cc2)N2CCOCC2)cc1 (stereo not shown) [Example 9-10, (E)-N-(2-Amino-phenyl)-3-{4-[morpholin-4-yl-(4-trifluoromethyl-phenylcarbamoyl)-methyl]-phenyl}-acrylamide]	80%	1.0	1.6
0.9 µM	Nc1ccccc1NC(=O)/C=C/c1ccc(C(C(=O)Nc2ccc(C(F)(F)F)cc2)N2CCCC2)cc1 (stereo not shown) [Example 9-11, (E)-N-(2-Amino-phenyl)-3-{4-[pyrrolidin-1-yl-(4-trifluoromethyl-phenylcarbamoyl)-methyl]-phenyl}-acrylamide]	97%	1.1	2.7
1.9 µM	CNC(C(=O)Nc1ccc(C(F)(F)F)cc1)c1ccc(/C=C/C(=O)Nc2ccccc2N)cc1 (stereo not shown) [Example 9-17, (E)-N-(2-Amino-phenyl)-3-{4-[methylamino-(4-trifluoromethyl-phenylcarbamoyl)-methyl]-phenyl}-acrylamide]	84%	1.3	1.9
1.8 µM	C[C@@H]1CN(CCNC(C(=O)Nc2ccc(C(F)(F)F)cc2)c2ccc(/C=C/C(=O)Nc3ccccc3N)cc2)C[C@H](C)O1 (stereo partly drawn) [Example 9-28, (E)-N-(2-Amino-phenyl)-3-{4-[[2-((2R,6S)-2,6-dimethyl-morpholin-4-yl)-ethylamino]-(4-trifluoromethyl-phenylcarbamoyl)-methyl]-phenyl}-acrylamide]	33%	0.5	0.9
7.1 µM	Nc1ccccc1NC(=O)/C=C/c1ccc(C(C(=O)Nc2ccc(C(F)(F)F)cc2)N2CCCCC2)cc1 (stereo not shown) [Example 9-29, (E)-N-(2-Amino-phenyl)-3-{4-[piperidin-1-yl-(4-trifluoromethyl-phenylcarbamoyl)-methyl]-phenyl}-acrylamide]	10%	0.3	0.5
